Experimental data reported in ChEMBL document CHEMBL4649982, “Selective targeting of Bromodomains of the Bromodomain-PHD Fingers family impairs osteoclast differentiation” (ACS Chem Biol, 2017).
Where “and” joins values, the source holds several entries; their conditions need not be identical. Identical values can stand only once.

How the values were obtained:
[1] = target: ATPase family AAA domain-containing protein 2B (Homo sapiens) (UniProt Q9ULI0); conditions: Compound concentration 10.0 uM, Protein concentration 2.0 uM
[2] = target: Bromodomain-containing protein 9 (Homo sapiens) (UniProt Q9H8M2); conditions: Compound concentration 10.0 uM, Protein concentration 2.0 uM
[3] = target: CREB-binding protein (Homo sapiens) (UniProt Q92793); conditions: Compound concentration 10.0 uM, Protein concentration 2.0 uM
[4] = target: Bromodomain-containing protein 4 (Homo sapiens) (UniProt O60885); conditions: Compound concentration 10.0 uM, Protein concentration 2.0 uM
[5] = target: Bromodomain-containing protein 1 (Homo sapiens) (UniProt O95696); conditions: Compound concentration 10.0 uM, Protein concentration 2.0 uM
[6] = target: Bromodomain testis-specific protein (Homo sapiens) (UniProt Q58F21); conditions: Compound concentration 10.0 uM, Protein concentration 2.0 uM
[7] = target: Bromodomain adjacent to zinc finger domain protein 2A (Homo sapiens) (UniProt Q9UIF9); conditions: Compound concentration 10.0 uM, Protein concentration 2.0 uM
[8] = target: Chromatin remodeling regulator CECR2 (Homo sapiens) (UniProt Q9BXF3); conditions: Compound concentration 10.0 uM, Protein concentration 2.0 uM
[9] = target: Bromodomain adjacent to zinc finger domain protein 2B (Homo sapiens) (UniProt Q9UIF8); conditions: Compound concentration 10.0 uM, Protein concentration 2.0 uM
[10] = target: Protein polybromo-1 (Homo sapiens) (UniProt Q86U86); conditions: Compound concentration 10.0 uM, Protein concentration 2.0 uM
[11] = target: Transcription initiation factor TFIID subunit 1 (Homo sapiens) (UniProt P21675); conditions: Compound concentration 10.0 uM, Protein concentration 2.0 uM
Transcription initiation factor TFIID subunit 1 (Homo sapiens), sequence (P21675 whole entry): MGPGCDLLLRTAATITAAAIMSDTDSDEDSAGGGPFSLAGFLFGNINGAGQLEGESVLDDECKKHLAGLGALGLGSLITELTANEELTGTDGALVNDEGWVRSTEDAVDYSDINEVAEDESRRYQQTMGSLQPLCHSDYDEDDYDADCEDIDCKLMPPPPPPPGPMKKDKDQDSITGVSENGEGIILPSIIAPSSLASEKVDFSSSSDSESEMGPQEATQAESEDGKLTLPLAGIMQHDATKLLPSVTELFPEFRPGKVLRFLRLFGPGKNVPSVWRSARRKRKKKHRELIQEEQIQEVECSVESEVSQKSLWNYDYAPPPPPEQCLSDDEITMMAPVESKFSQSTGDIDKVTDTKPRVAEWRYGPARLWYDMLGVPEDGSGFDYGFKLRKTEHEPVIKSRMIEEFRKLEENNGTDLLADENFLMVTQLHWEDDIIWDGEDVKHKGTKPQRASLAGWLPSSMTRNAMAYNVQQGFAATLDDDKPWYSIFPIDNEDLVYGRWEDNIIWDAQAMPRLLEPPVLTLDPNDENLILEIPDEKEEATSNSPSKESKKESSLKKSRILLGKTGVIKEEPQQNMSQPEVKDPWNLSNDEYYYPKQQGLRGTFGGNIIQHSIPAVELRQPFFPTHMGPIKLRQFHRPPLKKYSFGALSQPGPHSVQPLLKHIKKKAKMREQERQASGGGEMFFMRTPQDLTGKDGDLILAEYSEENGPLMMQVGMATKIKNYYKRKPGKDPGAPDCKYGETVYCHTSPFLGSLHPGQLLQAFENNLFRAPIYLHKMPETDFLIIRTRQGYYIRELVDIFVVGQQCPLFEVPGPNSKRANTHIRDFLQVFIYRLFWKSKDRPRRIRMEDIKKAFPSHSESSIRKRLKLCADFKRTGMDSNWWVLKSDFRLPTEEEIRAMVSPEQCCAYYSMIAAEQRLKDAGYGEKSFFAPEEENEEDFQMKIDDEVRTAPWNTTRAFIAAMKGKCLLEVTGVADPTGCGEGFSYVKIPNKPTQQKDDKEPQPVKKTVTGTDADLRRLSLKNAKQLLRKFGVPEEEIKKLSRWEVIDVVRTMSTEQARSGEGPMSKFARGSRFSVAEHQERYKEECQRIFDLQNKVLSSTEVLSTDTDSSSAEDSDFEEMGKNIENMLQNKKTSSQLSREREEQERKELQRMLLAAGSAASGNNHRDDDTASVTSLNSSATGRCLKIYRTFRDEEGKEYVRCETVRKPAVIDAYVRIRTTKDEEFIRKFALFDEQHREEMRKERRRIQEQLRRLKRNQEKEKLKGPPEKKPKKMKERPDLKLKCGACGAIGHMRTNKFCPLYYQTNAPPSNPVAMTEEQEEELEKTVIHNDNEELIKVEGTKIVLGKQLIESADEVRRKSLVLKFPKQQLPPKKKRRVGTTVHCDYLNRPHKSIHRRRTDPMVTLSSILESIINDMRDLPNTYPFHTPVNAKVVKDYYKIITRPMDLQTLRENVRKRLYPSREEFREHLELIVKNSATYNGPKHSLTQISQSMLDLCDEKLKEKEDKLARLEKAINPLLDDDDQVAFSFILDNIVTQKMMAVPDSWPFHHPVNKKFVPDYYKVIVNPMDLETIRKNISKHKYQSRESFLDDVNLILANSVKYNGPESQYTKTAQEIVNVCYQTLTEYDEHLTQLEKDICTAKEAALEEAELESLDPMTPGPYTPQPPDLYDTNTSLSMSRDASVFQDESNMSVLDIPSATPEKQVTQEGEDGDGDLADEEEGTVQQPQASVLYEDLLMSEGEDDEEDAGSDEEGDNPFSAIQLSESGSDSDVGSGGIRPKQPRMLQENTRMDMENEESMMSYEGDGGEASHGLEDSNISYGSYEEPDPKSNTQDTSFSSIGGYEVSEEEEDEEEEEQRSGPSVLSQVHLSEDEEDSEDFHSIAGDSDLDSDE

Peregrin (Homo sapiens) [12] = target: Peregrin (Homo sapiens) (UniProt P55201); conditions: Compound concentration 10.0 uM, Protein concentration 2.0 uM
Peregrin (Homo sapiens), sequence (P55201 whole entry): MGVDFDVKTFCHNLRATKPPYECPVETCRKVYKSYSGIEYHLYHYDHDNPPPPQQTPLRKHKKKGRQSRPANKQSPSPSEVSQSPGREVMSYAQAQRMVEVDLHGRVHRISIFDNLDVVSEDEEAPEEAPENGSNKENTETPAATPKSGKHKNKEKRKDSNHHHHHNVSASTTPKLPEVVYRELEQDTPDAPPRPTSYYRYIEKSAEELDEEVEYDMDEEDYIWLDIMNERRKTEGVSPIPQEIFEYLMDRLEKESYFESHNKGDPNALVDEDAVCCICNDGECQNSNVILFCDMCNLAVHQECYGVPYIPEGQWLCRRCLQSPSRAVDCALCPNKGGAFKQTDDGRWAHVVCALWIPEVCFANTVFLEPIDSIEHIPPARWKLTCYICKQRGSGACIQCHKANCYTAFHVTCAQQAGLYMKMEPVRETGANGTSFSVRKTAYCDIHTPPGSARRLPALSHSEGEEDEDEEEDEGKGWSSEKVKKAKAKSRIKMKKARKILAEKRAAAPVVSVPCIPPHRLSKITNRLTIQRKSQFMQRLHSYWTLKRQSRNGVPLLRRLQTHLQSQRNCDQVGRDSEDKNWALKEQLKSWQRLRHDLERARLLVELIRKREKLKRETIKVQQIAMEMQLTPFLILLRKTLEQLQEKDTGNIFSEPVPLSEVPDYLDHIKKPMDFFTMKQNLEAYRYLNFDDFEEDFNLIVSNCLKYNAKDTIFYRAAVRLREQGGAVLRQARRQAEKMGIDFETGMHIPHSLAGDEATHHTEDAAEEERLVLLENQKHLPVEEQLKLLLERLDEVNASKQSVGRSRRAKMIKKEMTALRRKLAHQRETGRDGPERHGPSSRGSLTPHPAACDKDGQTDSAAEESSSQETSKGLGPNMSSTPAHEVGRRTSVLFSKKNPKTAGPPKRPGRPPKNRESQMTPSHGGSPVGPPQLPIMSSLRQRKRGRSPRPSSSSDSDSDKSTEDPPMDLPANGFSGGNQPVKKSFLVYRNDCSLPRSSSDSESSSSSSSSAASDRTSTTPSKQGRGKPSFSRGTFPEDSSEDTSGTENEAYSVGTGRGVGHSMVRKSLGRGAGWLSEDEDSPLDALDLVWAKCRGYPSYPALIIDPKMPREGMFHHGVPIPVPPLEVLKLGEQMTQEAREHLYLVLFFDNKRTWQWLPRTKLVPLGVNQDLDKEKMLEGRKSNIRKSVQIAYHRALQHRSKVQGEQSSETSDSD

[13] = target: T1, E3 ubiquitin-protein ligase TRIM33 (Homo sapiens) (UniProt Q9UPN9); conditions: Compound concentration […], Protein concentration 200.0 uM
T1 sequence (whole entry): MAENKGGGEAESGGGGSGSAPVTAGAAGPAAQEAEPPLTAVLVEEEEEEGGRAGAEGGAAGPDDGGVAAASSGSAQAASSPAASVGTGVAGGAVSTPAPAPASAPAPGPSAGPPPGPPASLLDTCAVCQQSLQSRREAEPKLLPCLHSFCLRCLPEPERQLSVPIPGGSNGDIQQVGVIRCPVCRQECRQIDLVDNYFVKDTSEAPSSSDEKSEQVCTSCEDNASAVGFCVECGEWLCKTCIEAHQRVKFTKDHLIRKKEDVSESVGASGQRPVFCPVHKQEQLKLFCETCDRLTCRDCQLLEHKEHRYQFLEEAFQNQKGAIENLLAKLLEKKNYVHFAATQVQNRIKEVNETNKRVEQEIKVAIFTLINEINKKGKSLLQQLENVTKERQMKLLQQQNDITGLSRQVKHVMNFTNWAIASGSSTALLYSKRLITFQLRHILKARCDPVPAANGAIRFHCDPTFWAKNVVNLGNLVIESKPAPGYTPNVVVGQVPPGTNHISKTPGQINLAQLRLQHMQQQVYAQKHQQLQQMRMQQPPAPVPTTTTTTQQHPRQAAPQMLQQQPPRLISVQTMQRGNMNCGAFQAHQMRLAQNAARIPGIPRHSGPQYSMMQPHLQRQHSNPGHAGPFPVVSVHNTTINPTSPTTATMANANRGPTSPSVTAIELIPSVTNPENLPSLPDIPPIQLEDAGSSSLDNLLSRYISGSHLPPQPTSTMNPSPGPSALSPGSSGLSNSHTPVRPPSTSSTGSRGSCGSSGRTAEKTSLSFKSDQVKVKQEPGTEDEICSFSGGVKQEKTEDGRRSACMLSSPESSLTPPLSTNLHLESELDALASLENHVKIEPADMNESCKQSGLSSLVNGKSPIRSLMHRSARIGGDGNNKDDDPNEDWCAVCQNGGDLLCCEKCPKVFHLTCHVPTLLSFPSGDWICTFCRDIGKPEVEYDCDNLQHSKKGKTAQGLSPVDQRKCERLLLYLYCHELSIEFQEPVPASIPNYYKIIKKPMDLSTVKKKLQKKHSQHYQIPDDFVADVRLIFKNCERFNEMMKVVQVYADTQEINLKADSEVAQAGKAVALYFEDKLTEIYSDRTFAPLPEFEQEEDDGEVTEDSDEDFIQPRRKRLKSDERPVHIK

[14] = target: Protein polybromo-1 (Homo sapiens) (UniProt Q86U86); conditions: Compound concentration 10.0 uM, Protein concentration 2.0 uM; remark: listed apart in the source
[15] = target: Bromodomain adjacent to zinc finger domain protein 1A (Homo sapiens) (UniProt Q9NRL2); conditions: Compound concentration 10.0 uM, Protein concentration 2.0 uM
[16] = target: Bromodomain and WD repeat-containing protein 3 (Homo sapiens) (UniProt Q6RI45); conditions: Compound concentration 10.0 uM, Protein concentration 2.0 uM
[17] = target: Protein polybromo-1 (Homo sapiens) (UniProt Q86U86); conditions: Compound concentration 10.0 uM, Protein concentration 2.0 uM; remark: listed apart in the source
[18] = target: Bromodomain and WD repeat-containing protein 1 (Homo sapiens) (UniProt Q9NSI6); conditions: Compound concentration 10.0 uM, Protein concentration 2.0 uM
[19] = target: Histone acetyltransferase p300 (Homo sapiens) (UniProt Q09472); conditions: Compound concentration 10.0 uM, Protein concentration 2.0 uM
[20] = target: Transcription intermediary factor 1-beta (Homo sapiens) (UniProt Q13263); conditions: Compound concentration 10.0 uM, Protein concentration 2.0 uM
[21] = target: Bromodomain-containing protein 1 (Homo sapiens, UniProt O95696)
[22] = target: Protein polybromo-1 (Homo sapiens) (UniProt Q86U86); conditions: Compound concentration 10.0 uM, Protein concentration 2.0 uM; remark: listed apart in the source
[23] = target: Nuclear body protein SP140 (Homo sapiens) (UniProt Q13342); conditions: Compound concentration 10.0 uM, Protein concentration 2.0 uM
[24] = target: Transcription initiation factor TFIID subunit 1 (Homo sapiens) (UniProt P21675); conditions: Compound concentration 10.0 uM, Protein concentration 2.0 uM; remark: listed apart in the source
[25] = target: Chromatin remodeling regulator CECR2 (Homo sapiens) (UniProt Q9BXF3); conditions: Compound concentration 10.0 uM, Protein concentration 2.0 uM; remark: listed apart in the source
[26] = target: Transcription intermediary factor 1-alpha (Homo sapiens) (UniProt O15164); conditions: Compound concentration 10.0 uM, Protein concentration 2.0 uM
[27] = target: Bromodomain-containing protein 3 (Homo sapiens) (UniProt Q15059); conditions: Compound concentration 10.0 uM, Protein concentration 2.0 uM
[28] = target: Histone-lysine N-methyltransferase ASH1L (Homo sapiens) (UniProt Q9NR48); conditions: Compound concentration 10.0 uM, Protein concentration 2.0 uM
[29] = target: Histone acetyltransferase KAT2A (Homo sapiens) (UniProt Q92830); conditions: Compound concentration 10.0 uM, Protein concentration 2.0 uM
[30] = target: Protein polybromo-1 (Homo sapiens) (UniProt Q86U86); conditions: Compound concentration 10.0 uM, Protein concentration 2.0 uM; remark: listed apart in the source
[31] = target: Transcription intermediary factor 1-alpha (Homo sapiens) (UniProt O15164); assay: Thermal Shift Assay. Domain start/stop: N790-P971; conditions: Compound concentration 10.0 uM, Protein concentration 2.0 uM
[32] = target: ATPase family AAA domain-containing protein 2 (Homo sapiens) (UniProt Q6PL18); conditions: Compound concentration 10.0 uM, Protein concentration 2.0 uM
[33] = target: Histone acetyltransferase KAT2B (Homo sapiens) (UniProt Q92831); conditions: Compound concentration 10.0 uM, Protein concentration 2.0 uM
[34] = target: SWI/SNF-related matrix-associated actin-dependent regulator of chromatin subfamily A member 4 (Homo sapiens) (UniProt P51532); conditions: Compound concentration 10.0 uM, Protein concentration 2.0 uM
[35] = target: Bromodomain and PHD finger-containing protein 3 (Homo sapiens) (UniProt Q9ULD4); conditions: Compound concentration 10.0 uM, Protein concentration 2.0 uM
[36] = target: Bromodomain-containing protein 3 (Homo sapiens) (UniProt Q15059); conditions: Compound concentration 10.0 uM, Protein concentration 2.0 uM; remark: listed apart in the source
[37] = target: T1, E3 ubiquitin-protein ligase TRIM33 (Homo sapiens); assay: Thermal Shift Assay. Domain start/stop: D882-P1073; conditions: Compound concentration 10.0 uM
[38] = target: PH-interacting protein (Homo sapiens) (UniProt Q8WWQ0); conditions: Compound concentration 10.0 uM, Protein concentration 2.0 uM
[39] = target: Tyrosine-protein kinase BAZ1B (Homo sapiens) (UniProt Q9UIG0); conditions: Compound concentration 10.0 uM, Protein concentration 2.0 uM
[40] = target: Bromodomain-containing protein 2 (Homo sapiens) (UniProt P25440); conditions: Compound concentration 10.0 uM, Protein concentration 2.0 uM
[41] = target: Bromodomain-containing protein 2 (Homo sapiens) (UniProt P25440); conditions: Compound concentration 10.0 uM, Protein concentration 2.0 uM; remark: listed apart in the source
[42] = target: Transcription initiation factor TFIID subunit 1-like (Homo sapiens) (UniProt Q8IZX4); conditions: Compound concentration 10.0 uM, Protein concentration 2.0 uM
Transcription initiation factor TFIID subunit 1-like (Homo sapiens), sequence (Q8IZX4 whole entry): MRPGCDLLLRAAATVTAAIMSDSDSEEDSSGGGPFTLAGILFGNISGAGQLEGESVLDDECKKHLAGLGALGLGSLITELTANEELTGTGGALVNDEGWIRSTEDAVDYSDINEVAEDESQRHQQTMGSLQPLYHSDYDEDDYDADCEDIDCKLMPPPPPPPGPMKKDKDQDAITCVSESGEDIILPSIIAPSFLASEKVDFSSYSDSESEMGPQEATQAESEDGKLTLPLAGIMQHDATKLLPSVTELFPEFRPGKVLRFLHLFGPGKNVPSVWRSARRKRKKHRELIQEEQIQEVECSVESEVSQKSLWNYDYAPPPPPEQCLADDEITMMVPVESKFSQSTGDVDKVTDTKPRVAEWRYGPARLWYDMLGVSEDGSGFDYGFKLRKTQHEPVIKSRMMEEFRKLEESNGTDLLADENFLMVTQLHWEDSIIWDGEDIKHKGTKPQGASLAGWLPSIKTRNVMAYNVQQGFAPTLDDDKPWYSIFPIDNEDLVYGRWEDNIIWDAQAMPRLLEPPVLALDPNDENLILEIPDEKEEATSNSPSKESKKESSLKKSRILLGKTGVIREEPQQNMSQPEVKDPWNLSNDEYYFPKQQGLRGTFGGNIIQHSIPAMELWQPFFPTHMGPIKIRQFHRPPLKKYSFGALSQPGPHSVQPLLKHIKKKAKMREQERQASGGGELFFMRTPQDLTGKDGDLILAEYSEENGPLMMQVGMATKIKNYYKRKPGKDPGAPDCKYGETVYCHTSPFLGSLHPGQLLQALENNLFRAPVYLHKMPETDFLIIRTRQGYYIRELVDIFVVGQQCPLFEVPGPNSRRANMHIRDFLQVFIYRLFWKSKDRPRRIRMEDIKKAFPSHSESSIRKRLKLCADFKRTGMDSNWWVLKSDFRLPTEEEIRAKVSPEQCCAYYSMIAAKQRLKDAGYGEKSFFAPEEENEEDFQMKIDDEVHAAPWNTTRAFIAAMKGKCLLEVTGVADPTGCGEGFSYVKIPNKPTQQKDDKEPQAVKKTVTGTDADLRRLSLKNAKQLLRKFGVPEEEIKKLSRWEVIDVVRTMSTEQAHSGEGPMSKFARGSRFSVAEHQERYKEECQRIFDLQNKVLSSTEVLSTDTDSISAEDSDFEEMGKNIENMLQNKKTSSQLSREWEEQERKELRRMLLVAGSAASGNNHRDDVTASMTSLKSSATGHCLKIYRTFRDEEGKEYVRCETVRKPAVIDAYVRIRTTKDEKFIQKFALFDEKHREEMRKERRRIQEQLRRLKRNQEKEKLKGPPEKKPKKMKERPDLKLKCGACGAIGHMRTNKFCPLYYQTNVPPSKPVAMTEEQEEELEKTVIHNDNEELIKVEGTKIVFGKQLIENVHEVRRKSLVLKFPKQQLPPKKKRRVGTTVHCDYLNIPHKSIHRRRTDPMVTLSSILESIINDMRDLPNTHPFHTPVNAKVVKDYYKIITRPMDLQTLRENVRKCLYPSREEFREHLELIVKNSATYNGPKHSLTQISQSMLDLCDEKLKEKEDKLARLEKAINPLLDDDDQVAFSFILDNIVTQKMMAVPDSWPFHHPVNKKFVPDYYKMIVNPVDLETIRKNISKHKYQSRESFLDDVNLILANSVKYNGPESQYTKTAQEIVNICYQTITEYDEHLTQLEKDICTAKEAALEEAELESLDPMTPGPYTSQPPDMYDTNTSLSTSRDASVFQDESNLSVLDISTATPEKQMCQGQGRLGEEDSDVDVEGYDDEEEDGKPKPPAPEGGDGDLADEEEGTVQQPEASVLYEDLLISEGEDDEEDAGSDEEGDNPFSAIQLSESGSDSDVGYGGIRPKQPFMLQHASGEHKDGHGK

Peregrin (Homo sapiens) [43] = target: Peregrin (Homo sapiens) (UniProt P55201); conditions: Compound concentration 10.0 uM, Protein concentration 2.0 uM; remark: listed apart in the source
[44] = target: Protein polybromo-1 (Homo sapiens) (UniProt Q86U86); conditions: Compound concentration 10.0 uM, Protein concentration 2.0 uM; remark: listed apart in the source
[45] = target: Histone-lysine N-methyltransferase 2A (Homo sapiens) (UniProt Q03164); conditions: Compound concentration 10.0 uM, Protein concentration 2.0 uM
[46] = target: Bromodomain testis-specific protein (Homo sapiens) (UniProt Q58F21); conditions: Compound concentration 10.0 uM, Protein concentration 2.0 uM; remark: listed apart in the source
[47] = target: Nuclear body protein SP140-like protein (Homo sapiens) (UniProt Q9H930); conditions: Compound concentration 10.0 uM, Protein concentration 2.0 uM
[48] = target: Bromodomain-containing protein 7 (Homo sapiens) (UniProt Q9NPI1); conditions: Compound concentration 10.0 uM, Protein concentration 2.0 uM
[49] = target: SWI/SNF-related matrix-associated actin-dependent regulator of chromatin subfamily A member 2 (Homo sapiens) (UniProt P51531); conditions: Compound concentration 10.0 uM, Protein concentration 2.0 uM
[50] = target: Nucleosome-remodeling factor subunit BPTF (Homo sapiens) (UniProt Q12830); conditions: Compound concentration 10.0 uM, Protein concentration 2.0 uM
[51] = target: Transcription initiation factor TFIID subunit 1-like (Homo sapiens) (UniProt Q8IZX4); conditions: Compound concentration 10.0 uM, Protein concentration 2.0 uM; remark: listed apart in the source

COc1cc2c(cc1NS(=O)(=O)c1ccc(Br)cc1C)n(C)c(=O)n2C was tested, and the ΔTm [1] was 0.21 °C, the ΔTm [2] was 1.48 °C and the ΔTm [3] was 1.22 °C and 1.19 °C. For the same molecule, the ΔTm [4] was 1.31 °C, the ΔTm [5] was 3.15 °C and 3.42 °C and the ΔTm [6] was 1.19 °C. For the same molecule, the ΔTm [7] was 0.47 °C, the ΔTm [8] was 0.5 °C and the ΔTm [9] was 1.14 °C. For the same molecule, the ΔTm [10] was 0.96 °C, the ΔTm [11] was 0.36 °C and 0.33 °C and the ΔTm (Peregrin (Homo sapiens) [12]) was 0.46 °C and 0.95 °C. The inhibition [13] was 9.06%, the ΔTm [14] was 1.45 °C and the ΔTm [15] was 1.07 °C. For the same molecule, the ΔTm [16] was 1.67 °C, the ΔTm [17] was 1.74 °C and the ΔTm [18] was -0.9 °C and 1.4 °C. It also gave a ΔTm [19] of 0.87 °C, a ΔTm [20] of 0.37 °C and an IC50 [21] of 128 nM. The ΔTm [22] was 0.53 °C, the ΔTm [23] was 0.32 °C and the ΔTm [24] was 0.35 °C. For the same molecule, the ΔTm [25] was -0.25 °C, the ΔTm [26] was 1.16 °C and 2.05 °C and the ΔTm [27] was 2.03 °C. For the same molecule, the ΔTm [28] was 0.82 °C, the ΔTm [29] was 0.57 °C and the ΔTm [30] was 0.28 °C. For the same molecule, the ΔTm [31] was 0.91 °C, the ΔTm [32] was 0.15 °C and the ΔTm [33] was 0.53 °C. The ΔTm [34] was 0.35 °C, the ΔTm [35] was 1.85 °C and 3.4 °C and the ΔTm [36] was 1.93 °C. It also gave a ΔTm ([37]; Protein concentration 2.0 uM) of -0.61 °C, a ΔTm ([37]; Protein concentration […]) of -0.23 °C and a ΔTm [38] of 0.36 °C. For the same molecule, the ΔTm [39] was 0.53 °C, the ΔTm [40] was 1.41 °C and the ΔTm [41] was 1.02 °C. The ΔTm [42] was 0.36 °C, the ΔTm (Peregrin (Homo sapiens) [43]) was 7.61 °C and 6.99 °C and 6.03 °C and the ΔTm [44] was 0.5 °C. It also gave a ΔTm [45] of 0.64 °C, a ΔTm [46] of 1.5 °C and a ΔTm [47] of 0.82 °C. For the same molecule, the ΔTm [48] was 1.42 °C, the ΔTm [49] was 0.38 °C and the ΔTm [50] was 0.79 °C and 1.4 °C. The ΔTm [51] was -1.08 °C and 1.68 °C.
